Results from the supplement of paper PMC8612539.
In brackets after ≈: the same amount, converted by molar mass.

System: Histophilus somni
Assay: minimum inhibitory concentration (MIC)
Procedure: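 Broth microdilution MIC (Sensititre BOPO7F bovine plate, CLSI methods) of 19 antimicrobials against field isolates of P. multocida, M. haemolytica, H. somni (deep nasopharyngeal swabs) and E. coli, Enterococcus spp. (rectal swabs) from weaned dairy heifers. Incubation 16-24 h at 35 C. MIC is the lowest concentration preventing visible growth. Values with <= or > lie at the tested range limits. Trimethoprim-sulfamethoxazole is given as the trimethoprim component of a 1:19 mixture.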

CC1(C)S[C@@H]2[C@H](NC(=O)[C@H](N)c3ccccc3)C(=O)N2[C@H]1C(=O)O [Ampicillin]
Settings | minimum inhibitory concentration [µg/mL]
isolate (source animal id): 3 | ≤ 0.25
isolate (source animal id): 4 | 0.5 (≈ 1.43 µM)
isolate (source animal id): 7 | ≤ 0.25
isolate (source animal id): 14 | ≤ 0.25
isolate (source animal id): 15 | ≤ 0.25
isolate (source animal id): 17 | ≤ 0.25
isolate (source animal id): 18 | ≤ 0.25
isolate (source animal id): 20 | ≤ 0.25
isolate (source animal id): 23 | ≤ 0.25
isolate (source animal id): 45 | ≤ 0.25
isolate (source animal id): 53 | ≤ 0.25
isolate (source animal id): 83 | ≤ 0.25
isolate (source animal id): 88 | ≤ 0.25
isolate (source animal id): 92 | ≤ 0.25
isolate (source animal id): 93 | ≤ 0.25
isolate (source animal id): 99 | ≤ 0.25
isolate (source animal id): 100 | ≤ 0.25
isolate (source animal id): 105 | ≤ 0.25
isolate (source animal id): 107 | ≤ 0.25
isolate (source animal id): 108 | ≤ 0.25
isolate (source animal id): 109 | ≤ 0.25
isolate (source animal id): 110 | ≤ 0.25
isolate (source animal id): 117 | ≤ 0.25
isolate (source animal id): 121 | ≤ 0.25
isolate (source animal id): 123 | ≤ 0.25
isolate (source animal id): 124 | ≤ 0.25
isolate (source animal id): 127 | ≤ 0.25
isolate (source animal id): 128 | ≤ 0.25
isolate (source animal id): 130 | > 16
isolate (source animal id): 132 | ≤ 0.25
isolate (source animal id): 135 | ≤ 0.25
isolate (source animal id): 140 | ≤ 0.25
isolate (source animal id): 141 | ≤ 0.25
isolate (source animal id): 142 | ≤ 0.25
isolate (source animal id): 144 | ≤ 0.25
isolate (source animal id): 146 | ≤ 0.25
isolate (source animal id): 147 | ≤ 0.25
isolate (source animal id): 151 | ≤ 0.25
isolate (source animal id): 153 | ≤ 0.25
isolate (source animal id): 154 | ≤ 0.25
isolate (source animal id): 156 | ≤ 0.25
isolate (source animal id): 157 | ≤ 0.25
isolate (source animal id): 176 | ≤ 0.25
isolate (source animal id): 183 | ≤ 0.25
isolate (source animal id): 186 | ≤ 0.25
isolate (source animal id): 196 | ≤ 0.25
isolate (source animal id): 198 | ≤ 0.25
isolate (source animal id): 200 | ≤ 0.25
isolate (source animal id): 206 | ≤ 0.25
isolate (source animal id): 208 | ≤ 0.25
isolate (source animal id): 210 | ≤ 0.25
isolate (source animal id): 212 | ≤ 0.25
isolate (source animal id): 215 | ≤ 0.25
isolate (source animal id): 216 | ≤ 0.25
isolate (source animal id): 218 | ≤ 0.25
isolate (source animal id): 219 | ≤ 0.25
isolate (source animal id): 224 | ≤ 0.25
isolate (source animal id): 228 | ≤ 0.25
isolate (source animal id): 230 | ≤ 0.25
isolate (source animal id): 233 | ≤ 0.25
isolate (source animal id): 238 | ≤ 0.25
isolate (source animal id): 239 | ≤ 0.25
isolate (source animal id): 241 | ≤ 0.25
isolate (source animal id): 242 | ≤ 0.25
isolate (source animal id): 243 | ≤ 0.25
isolate (source animal id): 245 | ≤ 0.25
isolate (source animal id): 246 | ≤ 0.25
isolate (source animal id): 247 | ≤ 0.25
isolate (source animal id): 248 | ≤ 0.25
isolate (source animal id): 250 | ≤ 0.25
isolate (source animal id): 251 | ≤ 0.25
isolate (source animal id): 252 | ≤ 0.25
isolate (source animal id): 254 | ≤ 0.25
isolate (source animal id): 258 | ≤ 0.25
isolate (source animal id): 259 | ≤ 0.25
isolate (source animal id): 262 | ≤ 0.25
isolate (source animal id): 264 | ≤ 0.25
isolate (source animal id): 265 | 4 (≈ 11.4 µM)
isolate (source animal id): 266 | ≤ 0.25
isolate (source animal id): 267 | ≤ 0.25
isolate (source animal id): 269 | ≤ 0.25
isolate (source animal id): 271 | ≤ 0.25
isolate (source animal id): 272 | 4 (≈ 11.4 µM)
isolate (source animal id): 274 | ≤ 0.25
isolate (source animal id): 276 | ≤ 0.25
isolate (source animal id): 278 | ≤ 0.25
isolate (source animal id): 280 | 1 (≈ 2.86 µM)
isolate (source animal id): 281 | ≤ 0.25
isolate (source animal id): 283 | ≤ 0.25
isolate (source animal id): 288 | ≤ 0.25
isolate (source animal id): 291 | ≤ 0.25
isolate (source animal id): 292 | ≤ 0.25
isolate (source animal id): 296 | ≤ 0.25
isolate (source animal id): 306 | ≤ 0.25
isolate (source animal id): 336 | ≤ 0.25
isolate (source animal id): 337 | ≤ 0.25
isolate (source animal id): 341 | ≤ 0.25

CC[C@H]1OC(=O)C[C@@H](O)[C@H](C)[C@@H](O[C@@H]2O[C@H](C)[C@@H](O[C@H]3C[C@@](C)(O)[C@@H](O)[C@H](C)O3)[C@H](N(C)C)[C@H]2O)[C@@H](CC=O)C[C@@H](C)C(=O)/C=C/C(C)=C/[C@@H]1CO[C@@H]1O[C@H](C)[C@@H](O)[C@@H](OC)[C@H]1OC [Tylosin]
Settings | minimum inhibitory concentration [µg/mL]
isolate (source animal id): 3 | 8 (≈ 8.73 µM)
isolate (source animal id): 4 | 8 (≈ 8.73 µM)
isolate (source animal id): 7 | 8 (≈ 8.73 µM)
isolate (source animal id): 14 | 8 (≈ 8.73 µM)
isolate (source animal id): 15 | 8 (≈ 8.73 µM)
isolate (source animal id): 17 | 8 (≈ 8.73 µM)
isolate (source animal id): 18 | 8 (≈ 8.73 µM)
isolate (source animal id): 20 | 8 (≈ 8.73 µM)
isolate (source animal id): 23 | 2 (≈ 2.18 µM)
isolate (source animal id): 45 | 16 (≈ 17.5 µM)
isolate (source animal id): 53 | 16 (≈ 17.5 µM)
isolate (source animal id): 83 | 4 (≈ 4.37 µM)
isolate (source animal id): 88 | 8 (≈ 8.73 µM)
isolate (source animal id): 92 | 8 (≈ 8.73 µM)
isolate (source animal id): 93 | 8 (≈ 8.73 µM)
isolate (source animal id): 99 | 4 (≈ 4.37 µM)
isolate (source animal id): 100 | 8 (≈ 8.73 µM)
isolate (source animal id): 105 | 4 (≈ 4.37 µM)
isolate (source animal id): 107 | 8 (≈ 8.73 µM)
isolate (source animal id): 108 | 4 (≈ 4.37 µM)
isolate (source animal id): 109 | 8 (≈ 8.73 µM)
isolate (source animal id): 110 | 8 (≈ 8.73 µM)
isolate (source animal id): 117 | 4 (≈ 4.37 µM)
isolate (source animal id): 121 | 8 (≈ 8.73 µM)
isolate (source animal id): 123 | 8 (≈ 8.73 µM)
isolate (source animal id): 124 | 8 (≈ 8.73 µM)
isolate (source animal id): 127 | 8 (≈ 8.73 µM)
isolate (source animal id): 128 | 8 (≈ 8.73 µM)
isolate (source animal id): 130 | 2 (≈ 2.18 µM)
isolate (source animal id): 132 | 8 (≈ 8.73 µM)
isolate (source animal id): 135 | 8 (≈ 8.73 µM)
isolate (source animal id): 140 | 8 (≈ 8.73 µM)
isolate (source animal id): 141 | 4 (≈ 4.37 µM)
isolate (source animal id): 142 | > 32
isolate (source animal id): 144 | 8 (≈ 8.73 µM)
isolate (source animal id): 146 | 4 (≈ 4.37 µM)
isolate (source animal id): 147 | > 32
isolate (source animal id): 151 | 8 (≈ 8.73 µM)
isolate (source animal id): 153 | 16 (≈ 17.5 µM)
isolate (source animal id): 154 | > 32
isolate (source animal id): 156 | > 32
isolate (source animal id): 157 | 16 (≈ 17.5 µM)
isolate (source animal id): 176 | 32 (≈ 34.9 µM)
isolate (source animal id): 183 | 16 (≈ 17.5 µM)
isolate (source animal id): 186 | 32 (≈ 34.9 µM)
isolate (source animal id): 196 | 8 (≈ 8.73 µM)
isolate (source animal id): 198 | 8 (≈ 8.73 µM)
isolate (source animal id): 200 | 8 (≈ 8.73 µM)
isolate (source animal id): 206 | 8 (≈ 8.73 µM)
isolate (source animal id): 208 | 16 (≈ 17.5 µM)
isolate (source animal id): 210 | 8 (≈ 8.73 µM)
isolate (source animal id): 212 | 4 (≈ 4.37 µM)
isolate (source animal id): 215 | 8 (≈ 8.73 µM)
isolate (source animal id): 216 | 16 (≈ 17.5 µM)
isolate (source animal id): 218 | 8 (≈ 8.73 µM)
isolate (source animal id): 219 | 8 (≈ 8.73 µM)
isolate (source animal id): 224 | 8 (≈ 8.73 µM)
isolate (source animal id): 228 | 16 (≈ 17.5 µM)
isolate (source animal id): 230 | 32 (≈ 34.9 µM)
isolate (source animal id): 233 | 16 (≈ 17.5 µM)
isolate (source animal id): 238 | 2 (≈ 2.18 µM)
isolate (source animal id): 239 | 16 (≈ 17.5 µM)
isolate (source animal id): 241 | 16 (≈ 17.5 µM)
isolate (source animal id): 242 | 16 (≈ 17.5 µM)
isolate (source animal id): 243 | 16 (≈ 17.5 µM)
isolate (source animal id): 245 | 16 (≈ 17.5 µM)
isolate (source animal id): 246 | 8 (≈ 8.73 µM)
isolate (source animal id): 247 | 16 (≈ 17.5 µM)
isolate (source animal id): 248 | 4 (≈ 4.37 µM)
isolate (source animal id): 250 | 16 (≈ 17.5 µM)
isolate (source animal id): 251 | 32 (≈ 34.9 µM)
isolate (source animal id): 252 | 16 (≈ 17.5 µM)
isolate (source animal id): 254 | 16 (≈ 17.5 µM)
isolate (source animal id): 258 | 8 (≈ 8.73 µM)
isolate (source animal id): 259 | 8 (≈ 8.73 µM)
isolate (source animal id): 262 | 8 (≈ 8.73 µM)
isolate (source animal id): 264 | 4 (≈ 4.37 µM)
isolate (source animal id): 265 | 4 (≈ 4.37 µM)
isolate (source animal id): 266 | 8 (≈ 8.73 µM)
isolate (source animal id): 267 | 4 (≈ 4.37 µM)
isolate (source animal id): 269 | 4 (≈ 4.37 µM)
isolate (source animal id): 271 | 8 (≈ 8.73 µM)
isolate (source animal id): 272 | 4 (≈ 4.37 µM)
isolate (source animal id): 274 | 8 (≈ 8.73 µM)
isolate (source animal id): 276 | 8 (≈ 8.73 µM)
isolate (source animal id): 278 | 4 (≈ 4.37 µM)
isolate (source animal id): 280 | 4 (≈ 4.37 µM)
isolate (source animal id): 281 | 8 (≈ 8.73 µM)
isolate (source animal id): 283 | 4 (≈ 4.37 µM)
isolate (source animal id): 288 | 8 (≈ 8.73 µM)
isolate (source animal id): 291 | 8 (≈ 8.73 µM)
isolate (source animal id): 292 | 8 (≈ 8.73 µM)
isolate (source animal id): 296 | 4 (≈ 4.37 µM)
isolate (source animal id): 306 | 8 (≈ 8.73 µM)
isolate (source animal id): 336 | 8 (≈ 8.73 µM)
isolate (source animal id): 337 | 8 (≈ 8.73 µM)
isolate (source animal id): 341 | 8 (≈ 8.73 µM)
